This passage reports Activity and IC50 results from ChEMBL document CHEMBL1159267, “Barceloneic acid A, a new farnesyl-protein transferase inhibitor from a Phoma species” (J Nat Prod, 1995).

Experiment [1] has as its target T1, Protein farnesyltransferase (Homo sapiens, UniProt P49354+P49356). As to the kind of experiment: Inhibition of human recombinant FPTase up to ~300 uM by Ras farnesyl-protein-transferase assay. Format: protein-complex assay.
Experiment [2] deals with T1, Protein farnesyltransferase. As to the kind of experiment: Inhibition of human recombinant FPTase by Ras farnesyl-protein-transferase assay. Format: protein-complex assay.

The source made the active and inactive calls. The calls are words filed in the database; no cut-off is given here.

Regarding `COc1cc(CO)c(Oc2cc(C)cc(OC)c2C(=O)O)c(OC)c1`, the outcome in experiment [1] was inactive.
Same read-out and setting: for `COC(=O)c1c(OC)cc(C)cc1Oc1c(CO)cc(OC)cc1OC` the value was “inactive”; for `COc1cc(CO)c(Oc2cc(C)cc(O)c2C(=O)O)c(OC)c1`, “inactive”.
With `COc1cc(O)c(Oc2cc(C)cc(O)c2C(=O)O)c(CO)c1` [BARCELONEIC ACID A], the IC50 in experiment [2] worked out at 40 µM.
On to `COc1cc(O)c2c(c1)COC(=O)c1c(O)cc(C)cc1O2`, for which the result in experiment [1] was inactive.
On to `Cc1cc(O)c(C(=O)O)c(O)c1`, for which the result in experiment [1] was inactive.
Same read-out and setting: the value for `COc1cc(O)c(Oc2cc(C)cc(O)c2C(=O)O)c(C(=O)O)c1` was “inactive”.

Usually IC50 stands for the point on the concentration scale where inhibition reaches its midpoint.
